Tested on: eye of experimental rabbits
Assay: long-term (5 weeks) eye tolerability test of preserved ophthalmic gel compositions
Format: in vivo, rabbits (Charles River)
Protocol: Long-term tests were carried out on experimental rabbits (Charles River) with the compositions of Example 1 and 2. In parallel, comparative tests were carried out with a corresponding control group in which the compositions employed were in every respect the same but differed with regard to the preservative. Instead of benzyllauryldimethylammonium chloride, on the one hand benzalkonium chloride was used in the same concentration, and on the other hand, thiomersal (standard concentration) =40 μg/g was used.

[1] = Carbopol gel, benzalkonium chloride in same concentration as Examples 1 and 2, thiomersal 40 μg/g

Compound: C[CH2][Hg][S]c1ccccc1C(=O)[O-].[Na+] [thiomersal]
- damage to the tissue of the eye at the end of the test [1]: in some cases also damage to the eye
- irritation in the eye at the end of the test [1]: severe irritation
- rabbits showing severe irritation at the end of the test (control groups with other preservative): seven of eight

— US6599944B1, “Ophtalmic compound with extended dwell time on the eye” (Bausch & Lomb Incorporated, priority 1996, dated 2003)
